In patent US7750021B2, “Immunosuppressant compounds and compositions” (IRM LLC, priority 2003, dated 2010):

Columns and labels:
[1] = system: EDG-3, EDG-5, EDG-6 and EDG-8; experiment: EDG-3, -5, -6 and -8 GTP [γ-35S] binding assays (selectivity versus EDG-1); assay type: biochemical, human
Procedure: (§1) A. In Vitro: GPCR Activation Assay Measuring GTP [γ-^35S] Binding to Membranes Prepared from CHO Cells Expressing Human EDG Receptors
Solutions of test compounds ranging from 10 mM to 0.01 nM are prepared in DMSO. S1P is diluted in 4% BSA solution as positive controls. The desired amount of membrane prep is diluted with ice-cold assay buffer (20 mM HEPES, pH 7.4, 100 mM NaCl, 10 mM MgCl2, 0.1% Fatty acid-free BSA, 5 μM GDP) and vortexed well. 2 μl or less of compound is distributed into each well of a round-bottom 96-well polystyrene assay plate, followed by addition of 100 μl of diluted membranes (3-10 μg/well) and kept on ice until the addition of hot GTPγS. [^35S]-GTPγS is diluted 1:1000 (v/v) with cold assay buffer and 100 μl is added into each well. The reaction is carried out at room temperature for 90 minutes before the membranes are harvested onto Perkin-Elmer Unifilter® GF/B-96 filter plate using a Packard Filtermate Harvester. After several washes with wash buffer (20 mM HEPES, pH 7.4, 100 mM NaCl, 10 mM MgCl2), and a rinse with 95% ethanol, the filter is dried in a 37° C. oven for 30 minutes. MicroScint-20 is added and the plate sealed for scintillation counting on TopCount. EC50 values are obtained by fitting the GTP [γ-^35S] binding curves (raw data) with the dose response curve-fitting tool of GraphPad Prism. […]

[2] = system: blood lymphocytes; experiment: Measurement of circulating lymphocytes (blood lymphocyte depletion); assay type: in vivo, Mice (C57b1/6 male); details: Mus musculus, po, mice, orally by gavage, blood collected 6 and 24 hours after administration, read-out: ED50, effective dose required displaying 50% of blood lymphocyte depletion
Procedure: Measurement of circulating lymphocytes: Compounds are dissolved in DMSO and diluted to obtain a final concentration of 4% DMSO (v/v, final concentration) and then further diluted in a constant volume of Tween80 25%/H2O, v/v. Tween80 25%/H2O (200 μl), 4% DMSO, and FTY720 (10 μg) are included as negative and positive controls, respectively. Mice (C57b1/6 male, 6-10 week-old) are administered 250-300 μL of compound solution orally by gavages under short isoflurane anesthesia.
Blood is collected from the retro-orbital sinus 6 and 24 hours after drug administration under short isoflurane anesthesia. Whole blood samples are subjected to hematology analysis. Peripheral lymphocyte counts are determined using an automated analyzer. Subpopulations of peripheral blood lymphocytes are stained by fluorochrome-conjugated specific antibodies and analyzed using a fluorescent activating cell sorter (Facscalibur). Two mice are used to assess the lymphocyte depletion activity of each compound screened. The result is an ED50, which is defined as the effective dose required displaying 50% of blood lymphocyte depletion.

[3] = target: T1, human EDG-1 (Homo sapiens, UniProt P21453); experiment: EDG-1 (S1P1) GTP [γ-35S] binding assay; assay type: biochemical; details: GTP [γ-35S] binding to membranes from CHO cells expressing human EDG-1
T1 construct: c-myc (N); expressed in transfected cells
T1 sequence (P21453 whole entry): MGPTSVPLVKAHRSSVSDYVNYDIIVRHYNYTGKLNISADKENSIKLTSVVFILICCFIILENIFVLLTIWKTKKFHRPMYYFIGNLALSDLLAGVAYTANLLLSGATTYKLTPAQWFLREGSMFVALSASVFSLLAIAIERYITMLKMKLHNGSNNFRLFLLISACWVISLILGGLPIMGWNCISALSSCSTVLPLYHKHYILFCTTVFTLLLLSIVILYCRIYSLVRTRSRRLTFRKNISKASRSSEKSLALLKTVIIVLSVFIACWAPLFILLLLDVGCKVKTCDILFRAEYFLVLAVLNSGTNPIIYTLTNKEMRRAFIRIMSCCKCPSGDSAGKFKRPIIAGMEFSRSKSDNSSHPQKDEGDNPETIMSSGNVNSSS
Procedure: as §1
EDG-1 (S1P1) GTP [γ-^35S] binding assay: Homogenized membranes are prepared from CHO cell clones stably expressing a human EDG-1 N-terminal c-myc tag. Cells are grown in suspension in two 850 cm^2 roller bottles for three or fours days before harvesting. The cells are centrifuged down, washed once with cold PBS, and resuspended in ≦20 ml of Buffer A (20 mM HEPES, pH 7.4, 10 mM EDTA, EDTA-free complete protease inhibitor cocktail [1 tablet/25 ml]). The cell suspension is homogenized on ice, using a Polytron homogenizer at 30000 rpm at three intervals of 15 seconds each. The homogenate is first centrifuged at 2000 rpm on a tabletop low speed centrifuge for 10 minutes. The supernatant, after passing through a cell strainer, is then re-centrifuged at 50,000×g for 25 minutes at 4° C. The pellet is resuspended into buffer B (15% glycerol, 20 mM HEPES, pH 7.4, 0.1 mM EDTA, EDTA-free complete protease inhibitor cocktail [1 tablet/10 ml]). Protein concentration of the prep is determined using the BCA Protein Assay kit (Pierce) using BSA as standard. The membranes are aliquoted and kept frozen at −80° C.
Solutions of test compounds ranging from 10 mM to 0.01 nM are prepared in DMSO. S1P is diluted in 4% BSA solution as positive controls. […]

selective for EDG-1 compared to one or more of the other receptors including EDG-3, EDG-5, EDG-6 and EDG-8 [1]: at least 1000 fold
EC50 [3]: 0.6 nM
Structure (SMILES): O=C(O)CCNCc1ccc2sc(-c3ccc(-c4ccccc4)c(C(F)(F)F)c3)cc2c1 [Example 1, 3-{[2-(2-Trifluoromethyl-biphenyl-4-yl)-benzo[b]thiophen-5-ylmethyl]-amino}-propionic acid]
ED50 [2]: 0.2 mg/kg
